Results published in patent publication US8227515B2, “Use of hydroxamic acid derivatives for the preparation of anti-tumour medicaments” (Italfarmaco S.p.A., priority 2003, dated 2012).
Counter-ions that a name gives are not always drawn.

Legend:
KG-1 (myeloid leukaemia) = assay: Tritiated thymidine incorporation, tumour cell growth inhibition; format: cell-based; conditions: 48 hours with compound, read-out: IC50 (50% cell growth inhibition)
Procedure: (§1) The anti-tumour effect of the compound of example 12 of EP 901465, 4-[6-(diethylaminomethyl)naphth-2-ylmethyloxycarbamoyl)] benzohydroxamic acid hydrochloride (ITF 2357), was tested in vitro by measuring the capacity of the compound to inhibit the growth of tumour cell lines of different histotype deriving from both solid tumours and haematological tumours. The cell lines used were: A549 (pulmonary carcinoma), MDA-MB435 (breast carcinoma) and KG-1 (myeloid leukaemia).
[…] KG-1 cells, grown in RPMI 1640 culture medium, supplemented with 5% fetal calf serum, were seeded in 96 wells-flat bottom-plates (250000 cells/well). ITF 2357 at various doses was immediately added and after 36 hours tritiated thymidine was added to each well (1 μCi/well) and left therein for the following 12 hours. At the end the cells were collected by a cell harvester and the radioactivity contained in each sample which is directly proportionated to DNA synthesis and therefore to cell proliferation was measured by a liquid scintillation beta counter.
(§2) The effect of different doses of ITF 2357 was measured as percent of inhibition of radioactivity incorporation compared with untreated control cells. […]

Pes41 (Melanoma) = assay: Sulforhodamine B viable cell assay, 72 hours; format: cell-based; conditions: Homo sapiens
Procedure: (§3) Cell lines derived from human solid tumours of different histotype and stabilised in vitro were used in the following experiment. In particular, three cell lines from head and neck tumours (KB, Ca127 and Hep2), two cell lines derived from colon carcinomas (HT-29 and LoVo) and four cell lines derived from melanomas (Colo38, Pes41, Pes43 and Anad) were studied.
(§4) The cells were grown according to conventional methods in flasks containing synthetic culture medium added with fetal serum, at 37° C. under 5% CO2 atmosphere, then seeded in 96 wells plates and allowed to adhere for some hours. ITF 2357 was added in triplicate at increasing doses to each well and the cells were incubated for further 72 hours. Viable cells were labelled by dyeing with sulforhodamine B and their amount was determined by spectrophotometric evaluation of the dye content in each well. The effect of ITF 2357 was calculated as percentage of inhibition, at each concentration, of the dye incorporation in wells containing ITF 2357 compared with control wells (cells without drug). IC50 values of ITF 2357 were calculated by Software Calcusyn (Biosoft) according to dose-response curves.

Pes43 (Melanoma) = assay: Sulforhodamine B viable cell assay, 72 hours; format: cell-based; conditions: Homo sapiens
Procedure: as §3, §4

Anad (Melanoma) = assay: Sulforhodamine B viable cell assay, 72 hours; format: cell-based; conditions: Homo sapiens
Procedure: as §3, §4

LoVo (Colon carcinoma) = assay: Sulforhodamine B viable cell assay, 72 hours; format: cell-based; conditions: Homo sapiens
Procedure: as §3, §4

HT-29 (Colon carcinoma) = assay: Sulforhodamine B viable cell assay, 72 hours; format: cell-based; conditions: Homo sapiens
Procedure: as §3, §4

Colo38 (Melanoma) = assay: Sulforhodamine B viable cell assay, 72 hours; format: cell-based; conditions: Homo sapiens
Procedure: as §3, §4

Cal27 (Head-neck) = assay: Sulforhodamine B viable cell assay, 72 hours; format: cell-based; conditions: Homo sapiens, CAL-27
Procedure: as §3, §4

Hep-2 (Head-neck) = assay: Sulforhodamine B viable cell assay, 72 hours; format: cell-based; conditions: Homo sapiens
Procedure: as §3, §4

KB (Head-neck) = assay: Sulforhodamine B viable cell assay, 72 hours; format: cell-based; conditions: Homo sapiens
Procedure: as §3, §4

murine melanoma B16-BL6 = assay: Growth of subcutaneous murine melanoma B16-BL6 in vivo; set-up: species or system mouse C57BL/6; conditions: female C57BL/6 mice, oral, daily 6 days a week
Source text: The anti-tumour effect of ITF 2357 was studied measuring the capacity of the compound to reduce the growth of the murine melanoma B16-BL6. B16-BL6 tumour is a highly metastatic variant (Sciumbata T. et al. Invasion and Metastasis 1996; 16: 132-143) of the native tumour B16 and it grows subcutaneously in the syngenic mouse C57BL/6 (Gutman M et al. Cancer Biother. 1994; 9(2): 163-170). B16-BL6 tumour cells were inoculated subcutaneously in female C57BL/6 mice (10 animals/group, weight 20-22 grams) at the dose of 2×10^5 cells/mouse. ITF 2357 dissolved in water was administered orally, at the indicated doses, 10 minutes before the inoculum of the tumour cells and then daily for 6 days a week. The tumour growth was expressed as tumour weight, measuring twice a week, by means of a calibre, the two perpendicular diameters of the nodules. The weight was calculated according to the formula: (diameter 1×diameter 2)^2/2 as described in Giavazzi R. et al. Cancer Res. 1986; 46: 1928-1933.

[1] = test system: MDA-MB435 (breast carcinoma); assay: Tritiated thymidine incorporation, tumour cell growth inhibition; format: cell-based; conditions: Homo sapiens, MDA-MB-435, 48 hours with compound, read-out: IC50 (50% cell growth inhibition)
Procedure: as §1
(§5) A549 and MDA-MB435 cells (respectively grown in E-MEM and D-MEM culture medium, supplemented with 10% of fetal calf serum) were seeded on 96 wells-flat bottom-plates (5000 cells/well) and allowed to adhere for 4 hours at 37° C. under 5% CO2 atmosphere. Thereafter ITF 2357 at various doses was added to each well (4 replicates). […]
(§6) […] At the end the cells were collected by a cell harvester and the radioactivity contained in each sample which is directly proportionated to DNA synthesis and therefore to cell proliferation was measured by a liquid scintillation beta counter.
as §2

[2] = test system: A549 (pulmonary carcinoma); assay: as above; format: cell-based; conditions: Homo sapiens, 48 hours with compound, read-out: IC50 (50% cell growth inhibition)
Procedure: as §1, §5, §6, §2

**Q.** Which results are given for CCN(CC)Cc1ccc2cc(COC(=O)Nc3ccc(C(=O)NO)cc3)ccc2c1 [ITF 2357, 4-[6-(diethylaminomethyl)naphth-2-ylmethyloxycarbamoyl)] benzohydroxamic acid hydrochloride]?
**A.** IC50 (KG-1 (myeloid leukaemia)): 0.552 µM; IC50 (Pes41 (Melanoma)): 1.6 µM; IC50 (Pes43 (Melanoma)): 1.4 µM; IC50 (Anad (Melanoma)): 5.7 µM; IC50 (LoVo (Colon carcinoma)): 2.5 µM; IC50 (HT-29 (Colon carcinoma)): 0.7 µM; IC50 (Colo38 (Melanoma)): 2.38 µM; IC50 (Cal27 (Head-neck)): 3.4 µM; IC50 (Hep-2 (Head-neck)): 1 µM; IC50 (KB (Head-neck)): 0.64 µM; effect on the tumour growth (murine melanoma B16-BL6): dose-dependent inhibitory effect; reduction of the volume of the tumoural nodule (murine melanoma B16-BL6; after 15 days of treatment): about 50%; IC50 [1]: 0.073 µM; IC50 [2]: 0.495 µM
